# Test results published in PubChem BioAssay AID1399 (The Scripps Research Institute Molecular Screening Center, 2008).
# Active and inactive are the calls of the source. No cut-off is given here; in the data, nearly all actives have IC50 up to about 8.9 µM.
# Target: Signal transducer and activator of transcription 3 (Homo sapiens) (UniProt P40763)
# Test: STAT3 reporter inhibitors, potency, dose response, cell-based (AID 1399)
# Details: human cell STAT3 reporter inhibition
row,Structure (SMILES),IC50
1,Cc1cc(OCC(=O)Nc2ccncc2)ccc1Br,6.7 µM
2,CC(=O)N1CCc2cc(S(=O)(=O)NC3CCCc4ccccc43)ccc21 (stereo not given),5.12 µM
3,O=C(Nc1ccc(Oc2ccccc2)cc1)c1cnc2n(c1=O)CCS2,1.61 µM
4,O=C(Nc1cccc(O)c1)c1noc2c1CCc1ccccc1-2,3.55 µM
5,Cc1ccc(-c2cn3cc([N+](=O)[O-])ccc3n2)cc1,4.09 µM
6,COC(=O)c1nn(-c2ccc3c(c2)CCN3C(C)=O)cc1O,1.29 µM
7,COc1ccccc1OCC(=O)c1[nH]c(C)c(C(C)=O)c1C,5.33 µM
8,O=C1CCCN1c1ccc(S(=O)(=O)N2CCC(c3ccccc3)CC2)cc1,4.5 µM
9,Cc1ccc(Cl)cc1N1CCN(C(=O)COc2ccc(S(=O)(=O)NC(C)C)cc2)CC1,7.8 µM
10,CCCOc1ccc(/C=N/NC(=S)Nc2ccccc2[N+](=O)[O-])c(O)c1,1.05 µM
11,Cc1cccc(C)c1NC(=O)N1CCN(c2nc3ccccc3s2)CC1,4.48 µM
12,O=C(Oc1cccc(Nc2ncnc3ccccc23)c1)c1ccccc1Cl,4.44 µM
13,CCOC(=O)c1ccc(NC(=O)c2ccc(CN3CCOCC3)cc2)cc1,2.9 µM
14,Cc1ccc(S(=O)(=O)N(C)c2ccc(C(=O)N3CCN(Cc4ccc5c(c4)OCO5)CC3)cc2)cc1,6.17 µM
15,O=C(Nc1ccncc1)c1ccc2c(c1)C(=O)N(C1CCCCC1)C2=O,2.42 µM
16,COc1ccc2cc(-c3cc(C(=O)OCC(=O)Nc4c(C)n(C)n(-c5ccccc5)c4=O)c4ccccc4n3)ccc2c1,4.63 µM
17,Cc1nn2cc(-c3ncc(C(F)(F)F)cc3Cl)cnc2c1Br,inactive
18,O=C(Nc1ccncc1)c1ccc(-c2ccccc2)cc1,2.16 µM
19,CNc1ccccc1C(C)(C)c1cc(-c2ccc(F)cc2)no1,5.41 µM
20,O=C(C1CCN(c2nc3ccc(Br)cc3s2)CC1)N1CCC2(CC1)OCCO2,2.79 µM
21,CCCCCCCc1ccc(-c2ccc(O)cc2)nc1,3.26 µM
22,Cc1ccsc1/C=C1\CCc2ccccc2C1=O,5.04 µM

row,Structure (SMILES),IC50
1,Clc1ccc2ncc(-c3nnnn3-c3ccccc3)c(-c3ccccc3)c2c1,8.01 µM
2,Cc1nc2ccccc2cc1OCc1ccc(F)cc1,3.47 µM
3,CCOc1cc(C(=S)N2CCOCC2)ccc1OS(=O)(=O)c1ccc(NC(C)=O)cc1,5.23 µM
4,Cc1ccc(-n2nnnc2SCn2nnc3ccccc3c2=O)c(C)c1,5.32 µM
5,O=C(NC1CC1)c1cc2c(s1)-c1ccccc1OC2,3.83 µM
6,O=C(Nc1ccn(Cc2ccccc2F)n1)c1ccc(COc2ccc(Br)cc2)cc1,2.9 µM
7,Cc1nc2sccn2c1-c1csc(NCc2ccccc2)n1,4.37 µM
8,O=S(=O)(c1ccc2c(c1)OCCO2)N1CCC(c2nc3ccccc3s2)CC1,6.73 µM
9,CN1/C(=C\C(=O)C[n+]2ccc3ccccc3c2)C(C)(C)c2ccccc21,1.74 µM
10,COc1ccc(NS(=O)(=O)c2ccc(NC(=O)c3ccc(N(C)S(C)(=O)=O)cc3)cc2)cc1,3.99 µM
11,CC(C)Cn1c(N)c(C(=O)CSc2ccccc2)c(=O)n(C)c1=O,5.57 µM
12,COc1ccc(CC(=O)Nc2cccc(-c3nnc(-c4cccc(C)c4)o3)c2)cc1OC,3.32 µM
13,CCOC(=O)C1=C(Cc2ccc(C)cc2)C(=O)c2ccccc2C1=O,7.04 µM
14,COc1ccc(C)cc1-n1nnnc1SCn1nnc2ccccc2c1=O,7.58 µM
15,Cc1nc2ccccc2cc1OCc1ccccc1,4.76 µM
16,CCCNC(=O)c1ccc(-c2nc3ccccc3s2)s1,5.06 µM
17,Cc1cc(NC(=O)c2cc(-c3cccs3)on2)nn1Cc1ccc(Cl)cc1,5.48 µM
18,O=C(Nc1nccs1)c1ccc(S(=O)(=O)NCC2CCCCC2)cc1,3.03 µM
19,COc1ccc(CC(=O)Nc2cccc(SC)c2)cc1OC,6.37 µM
20,O=C(CSc1ccc2ccccc2c1)Nc1ccncc1,7.66 µM
21,COc1cc(OC)cc(C(=O)Nc2nnc(NC(=S)Nc3ccccc3)s2)c1,3.91 µM
22,CC[n+]1ccccc1/C=C/c1ccc(N(C)C)cc1,2.94 µM

row,Structure (SMILES),IC50
1,CCOc1ncccc1C(=O)OCC(=O)Nc1ccc(-c2nc3ccc(C)cc3s2)cc1,3.25 µM
2,Cn1c(CN2CCCCC2)nc2cc(NC(=O)c3cccc(Br)c3)ccc21,4.55 µM
3,Cc1ccc(-n2ncc3c(SCc4cccnc4)ncnc32)c(C)c1,5.76 µM
4,c1ccc(CC2CCN(c3ncnc4sccc34)CC2)cc1,1.61 µM
5,Clc1ccc(OCc2cc(-c3ccccc3)no2)c(Cl)c1,8.02 µM
6,Clc1ccc(CSc2nnc(Cn3cnc4ccccc43)o2)cc1,5.02 µM
7,Cc1cccc(-c2nc3cc(NC(=O)C4CCCO4)ccc3o2)c1 (stereo not given),6.32 µM
8,CNC(=O)Oc1cccc(-c2cn3cc(Cl)ccc3n2)c1,1.78 µM
9,CN(C)S(=O)(=O)Oc1cccc(C(=O)Nc2ccc(Cl)cc2)c1,5.23 µM
10,C[C@@H]1O[C@@H](O[C@H]2C[C@@H](O)[C@]3(CO)[C@H]4[C@H](O)C[C@]5(C)[C@@H](C6=CC(=O)OC6)CC[C@]5(O)[C@@H]4CC[C@]3(O)C2)[C@H](O)[C@H](O)[C@H]1O,1.15 µM
11,O=C(Nc1ccc(Cc2ccncc2)cc1)c1ccc(S(=O)(=O)N2CCOCC2)cc1,4.31 µM
12,c1ccc(C(Cc2nc(-c3ccncc3)no2)c2ccccc2)cc1,5.05 µM
13,O=C1C2C3c4ccccc4C(c4ccccc43)[C@@H]2c2nc3ccccc3n21 (stereo not given in full),4.51 µM
14,CCCOc1ccc(CSc2nc3ccccc3[nH]2)cc1,6.53 µM
15,C[C@H]1CCC[C@@H](O)CCC/C=C/c2cc(O)cc(O)c2C(=O)O1,5.25 µM
16,O=C(Nc1ccc(Oc2ccccc2)cc1)C1CCN(c2c3c(nc4ncnn24)CCC3)CC1,6.45 µM
17,O=C(Nc1nc(-c2ccc(Cl)s2)cs1)c1ccncc1,4.01 µM
18,Cc1nc(CNS(=O)(=O)c2ccc(Oc3ccccc3)cc2)cs1,5.54 µM
19,Cc1csc(NC(=O)c2cc3c(s2)CCCC3)n1,3.82 µM
20,O=C1c2ccc(Br)cc2C(=O)N1c1ccc(Cc2ccncc2)cc1,5.65 µM
21,O=C(Nc1cccc(S(=O)(=O)Nc2ccccc2Cl)c1)c1ccc(Cl)nc1,5.13 µM
22,O=C(COC(=O)c1n[nH]c2ccccc12)Nc1ccc(S(=O)(=O)N2CCCC2)cc1,4.5 µM

row,Structure (SMILES),IC50
1,CC1CCC2C(=O)N(c3ccccc3OC(=O)c3ccccc3)C(=O)C2C1 (stereo not given),9.22 µM
2,O=C(Nc1ccn(Cc2ccccc2F)n1)c1ccc(COc2ccccc2Cl)cc1,5.12 µM
3,COc1ccc(/C=N/NC(=S)Nc2cccc(C(=O)O)c2)cc1,4.56 µM
4,O=C(Nc1ccc(N2CCN(C(=O)c3ccco3)CC2)c(Cl)c1)c1cc2ccccc2o1,8.95 µM
5,CCC(C)(C)c1ccc(OCCCC[n+]2cccc(C)c2)c(C(C)(C)CC)c1,4.09 µM
6,CC(=O)c1ccc(N=Nc2ccc(C)cc2)cc1,4.77 µM
7,CCCCOc1ccc(C(=O)Nc2ccncc2)cc1,2.11 µM
8,NNC(=O)c1cccc(COc2ccccc2Br)c1,3.25 µM
9,COC(=O)c1cccc(NC(=O)CSc2nc3cccnc3n2C)c1,5.35 µM
10,CC1CCCCC1NS(=O)(=O)c1ccc(S(=O)(=O)NCc2ccncc2)cc1 (stereo not given),3.28 µM
11,COc1ccc(-c2nn(C)c(=O)c3ccccc23)cc1NC(=O)COc1ccc(C)cc1,5.06 µM
12,Cc1cc(OCC(=O)Nc2ccncc2)cc(C)c1Br,3.18 µM
13,O=C(Nc1ccc(N2CCOCC2)nc1)c1ccc(C(F)(F)F)cc1,3.4 µM
14,Nc1cc(-c2ccc(Br)cc2)nn1Cc1ccccc1,4.05 µM
15,COc1cc(OC)cc(C(=O)Nc2ccc(-c3nc4ccccc4o3)cc2)c1,inactive
16,COc1ccc2nc3c(cc2c1)c(NC(=O)c1cccs1)nn3CC(C)C,3.75 µM
17,CN(C)S(=O)(=O)c1ccc(C(=O)Nc2nc(-c3cccs3)cs2)cc1,8.64 µM
18,O=C(COc1ccc2ccccc2c1)Nc1ccncc1,6.11 µM
19,Cc1ccc2c(C)nc(Nc3nc(CSc4nc5ccccc5[nH]4)cc(=O)[nH]3)nc2c1,5.32 µM
20,CSc1ccc(NC(=O)N2CCN(c3nc4ccccc4s3)CC2)cc1,5.96 µM
21,CCN(CC)c1ccc(NC(=O)CN2C(=O)CSc3ncccc32)c(C)c1,3.82 µM
22,CC(=O)c1cn(CC(=O)Nc2ccccc2C)c2ccccc12,5.07 µM

row,Structure (SMILES),IC50
1,CCOC(=O)Cc1csc(SCC(=O)c2c(N)n(CC(C)C)c(=O)n(C)c2=O)n1,3.7 µM
2,Cc1cccc(N2CCN(C(=O)CSCc3c(C)noc3C)CC2)c1C,4.55 µM
3,C[C@H]1O[C@@H](O[C@H]2[C@@H](O)C[C@H](O[C@H]3[C@@H](O)C[C@H](O[C@H]4CC[C@@]5(C)[C@H](CC[C@@H]6[C@@H]5CC[C@]5(C)[C@@H](C7=CC(=O)OC7)CC[C@]65O)C4)O[C@@H]3C)O[C@@H]2C)C[C@H](O)[C@@H]1O,0.7 µM
4,CC(=O)Nc1ccc(-c2csc(Nc3ccc(Cl)cn3)n2)cc1,6.34 µM
5,CCc1c(C)c2ccc(OCC(=O)OC(C)C)c(C)c2oc1=O,6.19 µM
6,O=c1c2c(nc3n1CCCCC3)sc1c(O)cccc12,7.42 µM
7,CCOC(=O)c1oc2ccc(S(=O)(=O)Nc3ccc4c(c3)n(C)c(=O)n4C)cc2c1C,5.04 µM
8,O=C(Oc1ccccc1N1C(=O)C2CCCCC2C1=O)c1ccccc1 (stereo not given),7.93 µM
9,O=C(Nc1cccc(O)c1)C(=O)Nc1ccccn1,3.7 µM
10,Cn1c(=O)oc2cc(S(=O)(=O)N3CCCC(C(=O)N4CC=C(c5ccccc5)CC4)C3)ccc21 (stereo not given),5.41 µM
11,C[C@H]1O[C@@H](O[C@H]2[C@@H](O)C[C@H](O[C@H]3[C@@H](O)C[C@H](O[C@H]4CC[C@@]5(C)[C@H](CC[C@@H]6[C@@H]5C[C@@H](O)[C@]5(C)[C@@H](C7=CC(=O)OC7)CC[C@]65O)C4)O[C@@H]3C)O[C@@H]2C)C[C@H](O)[C@@H]1O,1.86 µM
12,CN1/C(=C\C(=O)C[n+]2ccc(C(=O)c3ccccc3)cc2)C(C)(C)c2ccccc21,5.22 µM
13,O=C(Nc1cccc(Cl)c1)Nc1ccnc(-c2cccnc2)n1,3.2 µM
14,CCOC(=O)c1sc2nc(CC(=O)OC)nc(NCc3ccc(Cl)cc3)c2c1C,7.66 µM
15,COc1ccc(C(=O)Nc2ccc3oc(Cc4ccc(Cl)cc4)nc3c2)cc1OC,6.74 µM
16,Cc1ccccc1OCCCCn1cnc2ccccc21,5.73 µM
17,COc1ccc(/C=N/NC(=S)Nc2ccccc2[N+](=O)[O-])cc1O,1.74 µM
18,O=C1C2C3c4ccccc4C(c4ccccc43)C2c2nc3ccccc3n21 (stereo not given),3.23 µM
19,COC(=O)Oc1ccc(/C=N/NC(=O)CSCc2ccccc2Br)cc1OC,2.07 µM
20,CCC(C)NC(=S)Nc1ccc(C(=O)OC)cc1 (stereo not given),4.35 µM
21,Nc1cc(-c2ccccc2)nn1Cc1ccc(Cl)cc1,6.76 µM
22,Cc1ccc(N2C(=O)c3ccccc3C2O)nc1 (stereo not given),5.98 µM
